Each structure is given as a SMILES string.

The first experiment has as its target T1, human CARM1 (PRMT4) (Flag- and His-tagged) (Homo sapiens, UniProt Q86X55).
T1 construct: Flag-CARM1-His; made in house; host or cells: HEK 293F cells (BacMam baculovirus)
T1 sequence (Q86X55 1-585 isoform Q86X55-1): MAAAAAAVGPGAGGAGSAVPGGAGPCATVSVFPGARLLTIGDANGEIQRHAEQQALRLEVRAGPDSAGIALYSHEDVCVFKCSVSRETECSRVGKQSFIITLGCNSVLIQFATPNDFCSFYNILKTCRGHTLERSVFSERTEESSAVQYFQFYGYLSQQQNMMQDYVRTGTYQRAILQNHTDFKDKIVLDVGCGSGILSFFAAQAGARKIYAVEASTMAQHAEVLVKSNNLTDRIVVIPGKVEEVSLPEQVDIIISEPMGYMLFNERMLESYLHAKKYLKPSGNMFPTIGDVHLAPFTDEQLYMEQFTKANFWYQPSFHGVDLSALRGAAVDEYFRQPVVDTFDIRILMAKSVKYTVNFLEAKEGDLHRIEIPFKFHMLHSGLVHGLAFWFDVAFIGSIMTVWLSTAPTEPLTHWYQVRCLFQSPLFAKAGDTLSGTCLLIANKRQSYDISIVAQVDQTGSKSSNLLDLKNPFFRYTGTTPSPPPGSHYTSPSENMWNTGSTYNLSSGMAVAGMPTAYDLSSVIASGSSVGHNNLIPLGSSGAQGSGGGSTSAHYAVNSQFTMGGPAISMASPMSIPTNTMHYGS
Put plainly: CARM1 Biochemical Assay (3H-SAM Flashplate, peptide substrate).
Settings: not given
An excerpt: General Materials. S-adenosylmethionine (SAM), S-adenosylhomocysteine (SAH), bicine, Tween20, dimethylsulfoxide (DMSO), bovine skin gelatin (BSG), sodium butyrate and Tris(2-carboxyethyl)phosphine hydrochloride solution (TCEP) were purchased from Sigma-Aldrich at the highest level of purity possible. ^3H-SAM was purchase from American Radiolabeled Chemicals with a specific activity of 80 Ci/mmol. 384-well streptavidin Flashplates were purchased from PerkinElmer.
Substrates. Peptide representative of human histone H3 residues 16-30 was synthesized with an N-terminal linker-affinity tag motif and a C-terminal amide cap by 21st Century Biochemicals. The peptide was purified by high-performance liquid chromatography (HPLC) to greater than 95% purity and confirmed by liquid chromatography mass spectrometry (LC-MS). The sequence was Biot-Ahx-[…]-amide and contained a monomethylated arginine at position 26 (SEQ ID NO.:14).
Molecular Biology: Human CARM1 (PRMT4) (NM_199141.1) transcript clone was amplified from an HEK 293 cDNA library, incorporating a flanking 5′ sequence encoding a FLAG tag ([…]) (SEQ ID NO.:6) fused directly to Ala 2 of CARM1 and 3′ sequence encoding a hexa His sequence ([…]) (SEQ ID NO.:15) fused directly to Ser 608. The gene sequence encoding isoform1 containing a deletion of amino acids 539-561 was amplified subsequently and subcloned into pFastBacMam (Viva Biotech).
Protein Expression. Recombinant baculovirus were generated according to Bac-to-Bac kit instructions (Life Technologies). […] Infections were carried out at 37° C. for 48 hours, harvested by centrifugation, and stored at −80° C. for purification.
Protein Purification. […] Column was washed with 500 mM NaCl in buffer A and Flag-CARM1-His was eluted with 200 ug/ml FLAG peptide in buffer A. Pooled fractions were dialyzed in 20 mM Tris, 150 mM NaCl, 5% glycerol and 1 mM DTT, pH 7.8. The purity of recovered protein was 94.
General Procedure for CARM1 Enzyme Assays on Peptide Substrates. The assays were all performed in a buffer consisting of 20 mM Bicine (pH=7.6), 1 mM TCEP, 0.005% BSG, and 0.002% Tween 20, prepared on the day of use. Compounds in 100% DMSO (1 ul) were spotted into a polypropylene 384-well V-bottom plates (Greiner) using a Platemate Plus outfitted with a 384-channel head (Thermo Scientific). DMSO (1 ul) was added to Columns 11, 12, 23, 24, rows A-H for the maximum signal control and 1 ul of SAH, a known product and inhibitor of CARM1, was added to columns 11, 12, 23, 24, rows I-P for the minimum signal control. A cocktail (40 ul) containing the CARM1 enzyme was added by Multidrop Combi (Thermo-Fisher). The compounds were allowed to incubate with CARM1 for 30 min at room temperature, then a cocktail (10 ul) containing ^3H-SAM and peptide was added to initiate the reaction (final volume=51 ul). The final concentrations of the components were as follows: CARM1 was 0.25 nM, ^3H-SAM was 30 nM, peptide was 250 nM, SAH in the minimum signal control wells was 1 mM, and the DMSO concentration was 2%. The assays were stopped by the addition of non-radiolabeled SAM (10 ul) to a final concentration of 300 uM, which dilutes the ^3H-SAM to a level where its incorporation into the peptide substrate is no longer detectable. 50 ul of the reaction in the 384-well polypropylene plate was then transferred to a 384-well Flashplate and the biotinylated peptides were allowed to bind to the streptavidin surface for at least 1 hour before being washed once with 0.1% Tween20 in a Biotek ELx405 plate washer. The plates were then read in a PerkinElmer TopCount plate reader to measure the quantity of ^3H-labeled peptide bound to the Flashplate surface, measured as disintegrations per minute (dpm) or alternatively, referred to as counts per minute (cpm).
Where dpm=disintegrations per minute, cmpd=signal in assay well, and min and max are the respective minimum and maximum signal controls. […]
Consider `CN(CCN)Cc1c[nH]nc1C1=CCOCC1` [Compound 10], for which the IC50 (as a rule, the concentration that gives 50% inhibition) is over 10000 nM.

In turn, `CN(CCN)Cc1c[nH]nc1C1CC1` [Compound 12] came in with an IC50 of over 10000 nM.

The molecule `CC(C)c1n[nH]cc1CN(C)CCN` [Compound 21] showed a 50% inhibitory concentration (IC50) of over 10000 nM.

The same experiment, now with this note: single experiment or average of multiple experiments.
For the molecule `CNCCN(C)Cc1c[nH]nc1C#Cc1cccc(OC)c1` [Compound 1], the IC50 was determined as 260 nM.

`CNCCN(C)Cc1c[nH]nc1C#Cc1ccc(C(C)(C)C)cc1` [Compound 2] showed an IC50 of 110 nM.

In the case of `CNCCN(C)Cc1c[nH]nc1C#Cc1ccc(F)cc1` [Compound 4], the IC50 amounted to 500 nM.

The molecule `CNCCN(C)Cc1c[nH]nc1/C=C/c1ccc(-c2ccccc2)cc1` [Compound 5] gave an IC50 of 310 nM.

On to `CNCCN(C)Cc1c[nH]nc1/C=C/c1ccc(C(F)(F)F)cc1` [Compound 6], for which 570 nM corresponded to half-maximal inhibition (IC50).

In turn, `CNCCN(C)Cc1c[nH]nc1/C=C/c1ccc(OC)cc1` [Compound 7] displayed an IC50 of 90 nM.

`Cc1ccc(/C=C/c2n[nH]cc2CN(C)CCN)cc1` [Compound 8] showed an IC50 of 370 nM.

Molecule `CN(CCN)Cc1c[nH]nc1C1=CCOCC1` [Compound 10] came in with an IC50 of over 10000 nM.

For the molecule `COc1cc(/C=C/c2n[nH]cc2CN(C)CCN)cc(OC)c1` [Compound 11], the IC50 was determined as 50 nM.

For `CN(CCN)Cc1c[nH]nc1C1CC1` [Compound 12], the IC50 was over 10000 nM.

Consider `CN(CCN)Cc1c[nH]nc1/C=C/c1ccc(F)cc1F` [Compound 13], for which the 50% inhibitory concentration (IC50) is 200 nM.

Molecule `CN(CCN)Cc1c[nH]nc1/C=C/c1cc(C(F)(F)F)cc(C(F)(F)F)c1` [Compound 14] registered an IC50 of 510 nM.

In turn, `CN(CCN)Cc1c[nH]nc1/C=C/c1cc(F)cc(F)c1` [Compound 15] gave a 50% inhibitory concentration (IC50) of 310 nM.

In the case of `CN(CCN)Cc1c[nH]nc1/C=C/c1cccc(C(F)(F)F)c1` [Compound 16], it took 110 nM to reach half-maximal inhibition (IC50).

Regarding `COc1cccc(/C=C/c2n[nH]cc2CN(C)CCN)c1` [Compound 17], the IC50 is 90 nM.

`CN(CCN)Cc1c[nH]nc1/C=C/c1ccc(C(F)(F)F)cc1` [Compound 18] showed an IC50 of 100 nM.

In the case of `COC/C=C/c1n[nH]cc1CN(C)CCN` [Compound 19], 3780 nM corresponded to half-maximal inhibition (IC50).

As to `CN(CCN)Cc1c[nH]nc1/C=C/c1cccc(F)c1` [Compound 20], the IC50 worked out at 250 nM.

Molecule `CC(C)c1n[nH]cc1CN(C)CCN` [Compound 21] returned an IC50 of over 10000 nM.

With `CN(CCN)Cc1c[nH]nc1C1CCCCC1` [Compound 22], inhibition was half-maximal at 3770 nM (IC50).

Consider `CN(CCN)Cc1c[nH]nc1CCc1ccc(F)cc1` [Compound 23, N^1-((3-(4-fluorophenethyl)-1H-pyrazol-4-yl)methyl)-N^1-methylethane-1,2-diamine], for which it took 2780 nM to reach half-maximal inhibition (IC50).

The values above are taken from patent US11512053B2, “Arginine methyltransferase inhibitors and uses thereof” (priority 2013, dated 2022).
